Key:
Type in all cases: cell-based
[1] = target: T1, human prostanoid FP receptor (Homo sapiens, UniProt P43088); experiment: FLIPR Ca2+ signaling antagonist assay, FP receptor stable cell line; settings: HEK-293 EBNA stable cell line; standard agonist 17-phenyl-PGF2α; NA = inactive (no antagonism or Kb 10,000 nM); PAg, Ag not defined
T1 construct: expressed in transfected cells
In short: (§1)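 Peak Fluo-4 fluorescence (ex 470–495, em 515–575 nm) was read for 3.5 min on FLIPR after agonist injection and expressed relative to 10^−6 M standard agonist. Cells were HEK-293 EBNA transfectants. Test compound was added 4.5 min beforehand at 0.1–30 μM, or 0.067–1 μM for TP.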

[2] = target: T2, human prostanoid DP1 receptor (Homo sapiens, UniProt Q13258); experiment: FLIPR Ca2+ signaling antagonist assay, DP1 receptor stable cell line; settings: HEK-293 EBNA stable cell line; standard agonist BW 245C; NA = inactive (no antagonism or Kb 10,000 nM); PAg, Ag not defined
T2 construct: expressed in transfected cells
T2 sequence (Q13258 1-359): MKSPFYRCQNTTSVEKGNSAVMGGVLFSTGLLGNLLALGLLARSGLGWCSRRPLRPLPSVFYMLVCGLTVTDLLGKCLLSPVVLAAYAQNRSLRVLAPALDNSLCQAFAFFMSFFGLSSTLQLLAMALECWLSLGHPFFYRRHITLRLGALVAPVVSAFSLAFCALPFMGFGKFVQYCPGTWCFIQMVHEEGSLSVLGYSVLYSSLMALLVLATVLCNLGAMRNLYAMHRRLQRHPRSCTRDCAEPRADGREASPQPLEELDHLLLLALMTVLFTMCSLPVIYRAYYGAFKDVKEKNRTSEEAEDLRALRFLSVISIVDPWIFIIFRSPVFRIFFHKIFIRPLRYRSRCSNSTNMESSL
In short: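 Functional antagonism measured by Ca2+ flux at 37 °C. Agonist ranges were 10^−11 to 10^−5 M, or 10^−12 to 10^−6 M for TP with U-46619; PGE2 for EP1/EP3, BW 245C for DP1. Compound spanned 0.1–30 μM except TP, 0.067–1 μM.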

[3] = target: T3, human prostanoid EP1 receptor (Homo sapiens, UniProt P34995); experiment: FLIPR Ca2+ signaling antagonist assay, EP1 receptor stable cell line; settings: HEK-293 EBNA stable cell line; standard agonist PGE2; NA = inactive (no antagonism or Kb 10,000 nM); PAg, Ag not defined
T3 construct: expressed in transfected cells
T3 sequence (P34995 1-402): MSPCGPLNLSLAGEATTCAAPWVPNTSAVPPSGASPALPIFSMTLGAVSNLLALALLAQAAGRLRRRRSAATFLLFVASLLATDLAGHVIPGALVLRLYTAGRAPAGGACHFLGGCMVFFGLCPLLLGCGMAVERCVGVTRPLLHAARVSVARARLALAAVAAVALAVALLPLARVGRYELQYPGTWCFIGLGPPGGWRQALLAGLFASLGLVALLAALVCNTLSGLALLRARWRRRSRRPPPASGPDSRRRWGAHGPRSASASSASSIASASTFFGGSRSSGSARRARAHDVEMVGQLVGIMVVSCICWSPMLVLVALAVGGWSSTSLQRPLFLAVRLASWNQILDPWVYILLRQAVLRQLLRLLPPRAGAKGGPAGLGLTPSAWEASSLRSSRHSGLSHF
In short: (§2)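 HEK-293 EBNA cells stably expressed the receptor: DP1 with chimeric Gqs, EP3 with Gqi, and EP1 and TP without exogenous G protein. Fluo-4AM-loaded cells were preincubated 4.5 min at 37 °C with antagonist (0.1–30 μM; TP 0.067–1 μM) before agonist serial dilutions. Peak FLIPR fluorescence was normalised to the 10^−6 M agonist control.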

[4] = target: T4, human prostanoid EP2 receptor (Homo sapiens, UniProt P43116); experiment: FLIPR Ca2+ signaling antagonist assay, EP2 receptor stable cell line; settings: HEK-293 EBNA stable cell line; standard agonist PGE2; NA = inactive (no antagonism or Kb 10,000 nM); PAg, Ag not defined
T4 construct: expressed in transfected cells
T4 sequence (P43116 whole entry): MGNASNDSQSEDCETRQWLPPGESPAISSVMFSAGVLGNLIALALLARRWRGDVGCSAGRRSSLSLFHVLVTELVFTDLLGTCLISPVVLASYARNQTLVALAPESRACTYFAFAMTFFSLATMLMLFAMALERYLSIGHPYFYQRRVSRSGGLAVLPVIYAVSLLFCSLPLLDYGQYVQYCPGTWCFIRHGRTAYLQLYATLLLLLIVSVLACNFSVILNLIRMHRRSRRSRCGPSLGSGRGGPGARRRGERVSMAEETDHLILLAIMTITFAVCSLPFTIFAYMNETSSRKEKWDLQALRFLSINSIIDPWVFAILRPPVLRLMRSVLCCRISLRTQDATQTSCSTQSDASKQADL
Procedure: The above compounds were tested for PG antagonist activity as follows using human recombinant prostanoid receptor (DP1, EP1-4, FP, IP and TP) stable cell lines:
In order to measure the response of Gs and Gi coupled prostanoid receptors as a Ca^2+ signal, chimeric G protein cDNAs were used. Stable cell lines over-expressing human prostanoid DP1, EP1-4, FP, IP, and TP receptors were established as follows:
Briefly, human prostanoid DP1, EP2, and EP4 receptor cDNAs were co-transfected with chimeric Gqs cDNA containing a haemagglutanin (HA) epitope; human prostanoid EP3 receptors were co-transfected with chimeric Gqi-HA; human EP1, FP, IP, and TP receptor cDNAs were expressed with no exogenous G-proteins. Gqs and Gqi chimeric cDNAs (Molecular Devices, Sunnyvale, Calif., U.S.A.), as well as cDNAs of prostanoid receptors, were cloned into a pCEP4 vector with a hygromycin B selection marker. Transfection into HEK-293 EBNA (Epstein-Barr virus nuclear antigen) cells was achieved by the FuGENE 6 transfection Reagent (Roche Applied Science, Indianapolis, Ind., USA). Stable transfectants were selected according to hygromycin resistance. Because Gqs and Gqi contained an HA epitope, G-protein expression was detected by Western blotting analysis using anti-mouse HA monoclonal antibody and horseradish peroxidase (HRP)-conjugated secondary antibody, while functional expression of prostanoid receptors was detected by FLIPR screening (Matias et al., 2004). These stable cell lines were validated using previously published antagonists at 10 μM against serial dilutions of standard agonists by FLIPR functional assays for Ca^2+ Signaling (as described below).
Ca^2+ signaling studies were performed using a FLIPR TETRA system (Molecular Devices, Sunnyvale, Calif., USA) in the 384-format. This is a high-throughput instrument for cell-based assays to monitor Ca^2+ signaling associated with GPCRs and ion channels. Cells were seeded at a density of 5×10^4 cells/well in BioCoat poly-D-lysine coated, black wall, clear bottom 384-well plates (BD Biosciences, Franklin lakes, NJ, USA) and allowed to attach overnight in an incubator at 37° C. The cells were then washed twice with HBSS-HEPES buffer (Hanks' balanced salt solution without bicarbonate and phenol red, 20 mM HEPES, pH 7.4) using an ELx405 Select CW Microplate Washer (BioTek, Winooski, Vt., USA). After 60 min of dye-loading in the dark using the Ca^2+-sensitive dye Fluo-4AM (Invitrogen, Carlsbad, Calif., USA), at a final concentration of 2×10^−6M, the plates were washed 4 times with HBSS-HEPES buffer to remove excess dye and leaving 50 μl of buffer in each well. The plates were then placed in the FLIPR TETRA instrument and allowed to equilibrate at 37° C. AGN-211377 was added in a 25 μl volume to each well to give final concentrations of 0.1 μM, 0.3 μM, 1 μM, 3 μM, 10 μM, and 30 μM; or 0.067 μM, 0.1 μM, 0.2 μM, 0.3 μM, 0.67 μM, and 1 μM for cells over-expressing TP receptors. After 4.5 minutes, a 7-point serial dilution of the standard agonist for the corresponding receptor, in a 25 μl volume was injected at the final concentrations from 10^−11M to 10^−5M in 10-fold serial dilution increments for cells expressing human recombinant DP1, EP1, EP2, EP3, EP4, FP, and IP receptors. The dose range for the standard agonist for human recombinant TP receptors was from 10^−12 M to 10^−6 M. HBSS-HEPES buffer was used as the negative control for the standard agonists. Cells were excited with LED (light emitting diode) excitation at 470-495 nm and emission was measured through an emission filter at 515-575 nm. Assay plates were read for 3.5 minutes using the FLIPR^TETRA. The peak increase in fluorescence intensity was recorded for each well. On each plate, negative controls, dose response of positive controls, and co-treatments of antagonist-agonist for each dose were in triplicates.
Standard agonists were as follows: DP=BW 245C, EP1-EP4=PGE2, FP=17-phenyl-PGF2α, IP=Cicaprost, and TP=U-46619. […]

[5] = target: T5, human prostanoid EP4 receptor (Homo sapiens, UniProt P35408); experiment: FLIPR Ca2+ signaling antagonist assay, EP4 receptor stable cell line; settings: HEK-293 EBNA stable cell line; standard agonist PGE2; NA = inactive (no antagonism or Kb 10,000 nM); PAg, Ag not defined
T5 construct: expressed in transfected cells
T5 sequence (P35408 whole entry): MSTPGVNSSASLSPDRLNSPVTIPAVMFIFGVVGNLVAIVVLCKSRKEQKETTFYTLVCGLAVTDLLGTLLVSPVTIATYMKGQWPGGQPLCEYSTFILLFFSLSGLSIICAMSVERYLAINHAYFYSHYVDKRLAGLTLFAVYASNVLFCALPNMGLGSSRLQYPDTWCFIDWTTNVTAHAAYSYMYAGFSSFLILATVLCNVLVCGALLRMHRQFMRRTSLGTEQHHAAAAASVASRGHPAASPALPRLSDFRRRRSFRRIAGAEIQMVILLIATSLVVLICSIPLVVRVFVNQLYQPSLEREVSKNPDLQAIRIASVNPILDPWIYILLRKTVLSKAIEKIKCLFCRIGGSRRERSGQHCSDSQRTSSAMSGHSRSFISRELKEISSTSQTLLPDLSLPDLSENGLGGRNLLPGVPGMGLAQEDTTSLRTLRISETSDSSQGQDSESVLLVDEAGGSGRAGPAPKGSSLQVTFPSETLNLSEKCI
In short: as §1

[6] = target: T6, human prostanoid IP receptor (Homo sapiens, UniProt P43119); experiment: FLIPR Ca2+ signaling antagonist assay, IP receptor stable cell line; settings: HEK-293 EBNA stable cell line; standard agonist Cicaprost; NA = inactive (no antagonism or Kb 10,000 nM); PAg, Ag not defined
T6 construct: expressed in transfected cells
T6 sequence (P43119 whole entry): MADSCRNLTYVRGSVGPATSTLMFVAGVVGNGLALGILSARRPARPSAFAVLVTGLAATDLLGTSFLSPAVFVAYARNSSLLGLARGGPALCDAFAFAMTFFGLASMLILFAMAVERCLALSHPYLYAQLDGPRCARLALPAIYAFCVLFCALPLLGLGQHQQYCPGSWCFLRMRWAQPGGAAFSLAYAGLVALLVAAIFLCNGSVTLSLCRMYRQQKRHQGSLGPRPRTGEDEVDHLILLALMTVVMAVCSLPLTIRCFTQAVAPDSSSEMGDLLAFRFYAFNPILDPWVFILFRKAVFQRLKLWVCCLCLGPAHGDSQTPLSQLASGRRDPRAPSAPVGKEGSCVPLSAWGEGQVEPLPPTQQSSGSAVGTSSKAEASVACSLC
In short: as §1

[7] = target: T7, human prostanoid TP receptor (Homo sapiens, UniProt P21731); experiment: FLIPR Ca2+ signaling antagonist assay, TP receptor stable cell line; settings: HEK-293 EBNA stable cell line; standard agonist U-46619; NA = inactive (no antagonism or Kb 10,000 nM); PAg, Ag not defined
T7 construct: expressed in transfected cells
T7 sequence (P21731 1-343): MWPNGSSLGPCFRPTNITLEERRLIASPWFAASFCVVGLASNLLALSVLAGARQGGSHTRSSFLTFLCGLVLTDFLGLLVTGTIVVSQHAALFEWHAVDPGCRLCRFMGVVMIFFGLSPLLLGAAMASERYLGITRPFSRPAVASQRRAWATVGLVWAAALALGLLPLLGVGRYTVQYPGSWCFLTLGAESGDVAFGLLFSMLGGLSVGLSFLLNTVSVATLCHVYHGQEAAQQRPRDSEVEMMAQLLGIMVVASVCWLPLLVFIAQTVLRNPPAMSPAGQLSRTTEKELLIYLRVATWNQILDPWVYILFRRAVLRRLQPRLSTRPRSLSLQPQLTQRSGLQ
In short: as §2

T1 sequence (P43088 whole entry): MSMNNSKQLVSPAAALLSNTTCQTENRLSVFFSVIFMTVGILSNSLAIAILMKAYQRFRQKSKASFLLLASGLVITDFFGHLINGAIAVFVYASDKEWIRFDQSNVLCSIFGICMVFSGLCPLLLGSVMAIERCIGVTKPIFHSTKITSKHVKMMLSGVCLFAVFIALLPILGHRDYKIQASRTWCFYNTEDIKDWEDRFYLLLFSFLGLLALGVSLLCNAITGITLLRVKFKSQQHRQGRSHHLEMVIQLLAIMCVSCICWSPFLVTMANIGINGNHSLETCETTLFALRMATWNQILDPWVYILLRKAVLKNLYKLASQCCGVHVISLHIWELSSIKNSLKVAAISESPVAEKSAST

| Kb [1] [nM] | Kb [3] [nM] | Kb [4] [nM] | Kb [5] [nM] | Kb [6] [nM] | Kb [7] [nM] | Kb [2] [nM] | EP1 (FLIPR) Kb [3] | EP2 (FLIPR) Kb [4] | EP4 (FLIPR) Kb [5] | IP (FLIPR) Kb [6] | TP (FLIPR) Kb [7] | Structure (SMILES) | DP1 (FLIPR) Kb [2] |
| --- | --- | --- | --- | --- | --- | --- | --- | --- | --- | --- | --- | --- | --- |
| 200 | 350 | 8200 | 1000 | 5500 | 30 |  |  |  |  |  |  | Cc1cc(CCCCC(=O)O)nn1Cc1cc(Cl)ccc1OCC1CCCC1 [Example 41, 5-[1-(5-Chloro-2-cyclopentylmethoxybenzyl)-5-methyl-1H-pyrazol-3-yl]-pentanoic acid] | PAg |
| 200 | 300 | 2500 | 7400 | 1200 | 9 | 300 |  |  |  |  |  | COc1ccc(COc2ccc(Cl)cc2Cn2nc(CCC(=O)O)cc2C)cc1 [Example 31, 3-[1-(5-Chloro-2-(4-methoxybenzyloxy)benzyl)-5-methyl-1H-pyrazol-3-yl]-propionic acid] |  |
| 30 | 30 | 1700 | 500 | 3600 | 30 | 110 |  |  |  |  |  | Cc1cc(CCC(=O)O)nn1Cc1cc(Br)ccc1OCC1CCC1 [Example 12, 3-[1-(5-Bromo-2-(2-cyclobutylmethoxy)-benzyl)-5-methyl-1H-pyrazol-3-yl]-propionic acid] |  |
| 170 |  |  |  |  |  |  | Ag | PAg | Ag | Ag | Ag | Cc1cc(CCC(=O)O)nn1Cc1cc(Cl)ccc1OCCCCC(C)C [Example 36, 3-[1-(5-Chloro-2-(5-methylhexyloxy)benzyl)-5-methyl-1H-pyrazol-3-yl]-propionic acid] | PAg |

| Structure (SMILES) | Kb [1] [nM] | Kb [3] [nM] | Kb [4] [nM] | Kb [5] [nM] | Kb [6] [nM] | Kb [7] [nM] | Kb [2] [nM] | EP1 (FLIPR) Kb [3] | EP2 (FLIPR) Kb [4] | EP4 (FLIPR) Kb [5] | IP (FLIPR) Kb [6] | TP (FLIPR) Kb [7] | DP1 (FLIPR) Kb [2] |
| --- | --- | --- | --- | --- | --- | --- | --- | --- | --- | --- | --- | --- | --- |
| Cc1cc(CCC(=O)O)nn1Cc1cc(Cl)ccc1OCCC(C)C [Example 21, 3-[1-(5-Chloro-2-(3-methylbutoxy)benzyl)-5-methyl-1H-pyrazol-3-yl]-propionic acid] | 225 | 350 | 8200 | 1000 | 5530 | 30 |  |  |  |  |  |  | PAg |
| CCC(CC)COc1ccc(OC(F)(F)F)cc1Cn1nc(CCC(=O)O)cc1C [Example 48, 3-[1-[2-(2-Ethyl-butoxy)-5-trifluoromethoxy-benzyl]-5-methyl-1H-pyrazol-3-yl]-propionic acid] | 150 | 80 | 3000 | 400 | 2300 | 40 |  |  |  |  |  |  | PAg |
